{"source": "patent US20160082105A1", "about": "“Antibody Buffering of a Ligand in Vivo” (ARROWSMITH TECHNOLOGIES CORPORATION, priority 2004, published 2016)", "key": {"[1]": {"text": "Male Sprague-Dawley rats (300 g) were obtained from Zivic Laboratories, Inc. (Zelienople, Pa.). Each rat underwent surgery to place a cannula in the right lateral ventricle for injections and a second cannula in the cisterna magna for cerebral spinal fluid (CSF) sampling. Briefly, the rat was anesthetized with 2.5% isoflurane and fixed in a stereotaxic device. Normal body temperature was maintained through a heating pad. A linear midline incision exposed the frontal, parietal, and occipital bones. The lateral ventricle was located using the coordinates (1.8 mm posterior, 3.8 mm lateral, and 4 mm ventral from bregma) obtained from a stereotaxic atlas of the rat (Paxinos et al. The Rat Brain in Stereotaxic Coordinates (Academic Press 1998)). A hole was drilled through the skull, a cannula was inserted, and it was fixed to the skull using VetBond (3M, Minneapolis, Minn.) and dental cement. […] The cannula was inserted to a depth of 2 mm below the bottom of the skull and fixed with VetBond and dental cement. Screw-capped cannula dummy wires were inserted into the cannula guides to maintain a closed system. Rats were allowed to recover for at least 24 hours before ventricular injection.\nFor experiments for which injections and withdrawals of CSF were done via the same site in the cisterna magna (CM), male Sprague-Dawley rats (250 g) were obtained from Charles River Laboratories (Wilmington, Mass.). […] Rats were allowed to rest no more than three days after arrival prior to experimentation to reduce the risk of cannula blockage.\n(§1) Samples were prepared for injection: 104 pmol anti-Ox antibody and 52 pmol Ox; 104 pmol of D1.3 control antibody and 52 pmol Ox; and 52 pmol Ox alone. Each sample was diluted to 10 μl with sterile PBS. The samples were warmed to 37° C., and then infused over 1 minute through the intraventricular or cisternal cannula in Sprague-Dawley rats. The end of the infusion was designated as time zero (0). At various timepoints, 10 μl of CSF was withdrawn. For one set of rats, the 10 μl CSF was counted directly by placing it into 5 ml of Scintiverse II and counting in a Beckman LS6500 Scintillation Counter. For another set of rats, the 10 μl CSF was diluted into 100 μl ice cold PBS and used in bound vs. free Ox experiments described below.\n(§2) Samples of NQ11/7.12 and Ox were prepared and infused into the cisternal cannula of Sprague-Dawley rats from Charles River Laboratories as described above for the antibody buffering protocol. Ten μl of CSF was taken from the cisterna magna at time 1, 10, 20, 30, 60, 90 and 120 minutes. The 10 μl CSF samples were either counted directly or diluted into 100 μl ice cold PBS and loaded onto a 187.1 column to separate bound and free Ox. At 24 hours and at 48 hours following the first administration, 52 pmol Ox in 10 μl total volume (diluted with sterile PBS) was infused over 1 minute through the cisterna magna cannula. Timepoints were again taken and analyzed as above.\nTo determine the pharmacokinetic behavior of Ox in the CSF, tritiated Ox was infused into a rat through its intraventricular cannula, and elimination of Ox was followed through CSF sampling from the cisterna magna (CM) cannula. Sampling was done from the cisterna magna because it is the largest CSF compartment. Its location between the cerebellum and the upper brain stem and its large size make it relatively easy to access CSF for sampling and scintillation counting (van den Berg et al., J. Neurosci. Methods 116:99-107 (2002))."}, "[2]": {"procedure": "as §1\nThe rat anti-mouse kappa antibody 187.1 (obtained from American Type Culture Collection (ATCC), Manassas, Va.) (Yelton et al., Hybridoma 1:5-11 (1981)) was isolated from spent culture medium and purified by passage over a Protein A-Sepharose affinity column. Ten grams of CNBr-activated Sepharose 4 Fast Flow (Amersham Biosciences) were washed and coupled with 187.1 according to manufacturer's protocol. Two mg 187.1 per 10 g of swelled resin were used.\nDuring the antibody buffering experiments, the CSF plus ice cold PBS sample were loaded onto the 187.1 column immediately after the dilution. Application to the column of 3 ml of PBS in 0.5 ml increments was followed by application of 3 ml of 0.2 M glycine (pH 2.5) in 0.5 ml increments. All the PBS fractions and all the glycine fractions were collected separately for each timepoint and dried down in the SpeedVac. The residue was resuspended in 150 μl PBS and then transferred to a scintillation vial with 5 ml Scintiverse II for counting.\nas §2\nThe principle of chemical equilibrium predicts that the Ox in the CSF should partition between free and antibody-bound forms, and that the free pool should be constantly replenished, staying at a concentration near the antibody's Kd. The Ox in the CSF samples from another set of rats was separated into bound and free forms by passage over an affinity column. […] Antibody-Ox complexes bound to the immobilized rat anti-mouse kappa antibody while free Ox eluted from the column with the PBS wash (free Ox fraction).", "remark": "listed apart in the source"}, "[3]": {"conditions": "Ox alone re-administered at 24 hours and 48 hours after a single NQ11/7.12 + Ox cisternal infusion"}, "[4]": {"conditions": "Ox administered alone or with D1.3"}}, "note": "Where two headings read alike, the source gives them in different places."}
{"smiles": "O=C(O)CCCNC=C1N=C(c2ccccc2)OC1=O", "note": "[Ox, 2-phenyl-oxazol-5-one-γ-amino butyrate]", "values": [{"measurement": "Ox elimination half-life from the cisterna magna", "setting": "[1]; Ox alone (no NQ11/7.12), intraventricular infusion, cisternal CSF sampling", "value": 1.2, "unit": "min"}, {"measurement": "total Ox pharmacokinetic lifetime in CSF, long term buffering", "setting": "[1]; [3]", "value": "kinetic profile between the profile observed when Ox was initially administered with NQ11/7.12 and the profile of Ox when administered with D1.3"}, {"measurement": "Ox elimination half-life from CSF", "setting": "[1]; Ox co-administered with control antibody D1.3, cisternal infusion", "value": 1.0, "unit": "min"}, {"measurement": "Ox elimination half-life from CSF", "setting": "[1]; Ox co-administered with twice the molar amount of NQ11/7.12, cisternal infusion", "value": 10, "unit": "min"}, {"measurement": "time of peak Ox concentration in the cisterna magna", "setting": "[1]; Ox with twice the molar amount of NQ11/7.12, intraventricular infusion", "value": "around 5 minutes"}, {"measurement": "peak Ox concentration in the cisterna magna", "setting": "[1]; Ox without antibody buffer, intraventricular infusion", "value": "never attained a peak concentration"}, {"measurement": "increase in Ox half-life in CSF, NQ11/7.12 vs D1.3", "setting": "[1]; cisternal infusion", "value": "ten-fold"}, {"measurement": "decrease of free Ox concentration in CSF in an hour", "setting": "[2]; [4]", "value": 500, "unit": "fold"}, {"measurement": "free Ox elimination half-life in CSF", "setting": "[2]; [4]", "value": 0.61, "unit": "min"}, {"measurement": "initial free Ox concentration in CSF", "setting": "[2]; [4]", "value": 1.4, "unit": "mM"}, {"measurement": "decrease of free Ox concentration in CSF over time", "setting": "[2]; Ox administered with NQ11/7.12", "value": "less than 10 fold"}, {"measurement": "free Ox concentration in CSF after the decrease", "setting": "[2]; Ox administered with NQ11/7.12", "value": "approximately 6 nM"}, {"measurement": "free Ox elimination half-life in CSF", "setting": "[2]; Ox administered with NQ11/7.12", "value": 1.55, "unit": "min"}, {"measurement": "initial free Ox concentration in CSF", "setting": "[2]; Ox administered with NQ11/7.12", "value": "6e-05", "unit": "mM"}, {"measurement": "free Ox elimination in CSF, long term buffering", "setting": "[2]; [3]", "value": "slower elimination profile than Ox administered with D1.3"}]}
